# Results as given in patent publication US20260083674A1, “OXAZOLIDINONE LIPOSOME COMPOSITIONS” (priority 2021, published 2026).
# Read-outs that look alike come from different tables or passages of the source.
# Tests used:
# [1] = system: methicillin resistant Staphylococcus aureus (MRSA) ATCC 43300; assay: MIC against MRSA strain ATCC 43300; details: read-out: MRSA MIC, strain ATCC 43300
# [2] = system: methicillin resistant Staphylococcus aureus (MRSA) 880 NR-49120; assay: MIC against MRSA strain 880 NR-49120; details: read-out: MRSA MIC, strain 880 NR-49120
# [3] = system: human hepatocyte/liver (HepG2; ATCC #HB8065) cells; assay: In vitro cytotoxicity (PrestoBlue cell viability), HepG2 cells; details: HepG2, 72 h, read-out: Cell viability IC50, HepG2
# Procedure: (§1) Data is reported out as the full cell viability curve, as well as a calculation of the actual IC50 value for each compound.
# (§2) Adherent cells were grown to ˜80% confluency. […] The cell density was determined using a hemocytometer.
# (§3) These compounds were provided as sterile aqueous solutions of HCl salts with a concentration of 5 mg/ml. For making dilutions, each drug stock was warmed to room temperature, vortexed and was visually inspected for precipitation. If solid drug was present, the stock was heated on a 60° C. water bath and then allowed to cool to near room temperature. Based on the treatment concentrations, 20× working stocks were made by serial dilution.
# (§4) At the end of the compound incubation period, replace the media in each well with 100 μl of 1× PrestoBlue Cell Viability Reagent (ThermoFisher Cat #A13261). Incubate the plate at 37° C. in a humidified incubator with 5% CO2 30 min to 2 h. […] Read fluorescence with 560 nm excitation and 590 nm emission using SpectraMax M5 plate reader (Molecular Devices). Correct background by subtracting the RFU of the control containing only the culture medium (background control well) from all sample readings. Calculate the percentage of cytotoxicity using the formula below:
# (§5) The IC50 was determined using GraphPad Prism using the following formula:
# [4] = system: M.tb H37Rv; assay: Broth microdilution MIC with Alamar blue endpoint (MABA), M.tb H37Rv; assay type: cell-based; details: Mycobacterium tuberculosis
# [5] = system: mitochondrial protein synthesis vs H37Rv M. tuberculosis; assay: MPS selectivity index (MPS IC50 / MIC H37Rv)
# [6] = system: mitochondrial protein synthesis (COX-1/SDH-A) in H9C2 rat heart myoblast cells; assay: Inhibition of mitochondrial protein synthesis (MitoBiogenesis in-cell ELISA, COX-1/SDH-A); details: H9c2, 120 h, read-out: MPS IC50
# Procedure: Inhibition of mitochondrial protein synthesis was determined using a colorimetric MitoBiogenesis™ in-cell ELISA kit from AbCam (Catalog #ab11021), as per the manufacturer's instructions. […] The levels of two mitochondrial proteins were measured simultaneously, including the mitochondrial DNA-encoded subunit I of Complex IV (COX-1) and the nuclear DNA-encoded 70 kDa subunit of Complex II (SDH-A). The H9C2 rat BDIX heart myoblast cell line was used in these studies in a 384 well plate assay format. Cells were grown in DMEM media with 10% FBS and 1×Glutamine at 37° C. and 5% CO2. […] Ten concentrations of each compound, starting at a high concentration of 200 μM and including nine 3-fold dilutions and one replicate per condition, were added to the cells in 2.5 μl and incubated with the cells for five days at 37° C. and 5% CO2.
# COX-I and SDH-A signals were plotted as a ratio of COX-1/SDH-A against concentration of each compound, and the IC50 were calculated for each of the 9 investigational compounds and two controls.
# [7] = system: African green monkey kidney (Vero; ATCC #CCL81) cells; assay: In vitro cytotoxicity (PrestoBlue cell viability), Vero cells; details: Chlorocebus sabaeus, 72 h, read-out: Cell viability IC50, VERO
# Procedure: as §1, §2, §3, §4, §5
# [8] = system: methicillin resistant Staphylococcus aureus (MRSA) ATCC BAA-1556; assay: MIC against MRSA strain ATCC BAA-1556; details: ATCCBAA1556|MRSA
# [9] = Liposome loading: encapsulated drug-to-lipid ratio and encapsulation efficiency; assay type: physicochemical
# Procedure: 1. The lipid components (phospholipid (PhL), cholesterol, and optionally—a PEG-lipid derivative and/or a lipid fluorescent label were combined in an amount of 100% ethanol equal to one-tenth of a volume (V) calculated to obtain lipid suspension with about 60 mM phospholipid and stirred at the temperature of 65-68° C. until complete dissolution of the lipids.
# 2. The ethanolic lipid solution was combined with volume V of the trapping agent solution (0.25-0.5 M ammonium sulfate or 1 N triethylammonium sucrose octasulfate) upon stirring at 65-68° C. until a uniform suspension was obtained.
# 3. The lipid suspension was extruded at least three times through a stack of track-etched polycarbonate membranes, typically, two or four membranes with the nominal pore size of 100 nm and one with the nominal pore size 200 nm (Whatman Nuclepore, USA), using a thermobarrel extruder (Lipex, Canada) at 65-68° C., at the pressure of 400-450 psi. When two 100-nm membranes were used in a 100-ml Lipex extruder, the extrusion pressure was typically 260-300 psi. The resulting liposomes have Z-average particle size (diameter) Xz between about 80 and about 130 nm, and PDI less than 0.1.
# 5. An aliquot of the extruded, filtered liposome suspension so made was chromatographed on a gravity-fed Sepharose CL-4B size exclusion column (eluent-Type 1 water), to purify the liposomes from extraliposomal trapping agent. The purified liposomes were collected near the void volume fraction of the column. For a scale-up studies, this step was performed using a tangential flow filtration (TFF) on a hollow fiber cartridge (Repligen Spectrum MicroKros PS or mPES membrane with MWCO of 500 KDa) effecting 8-10 volume exchanges (or until the conductivity of the liposome suspension dropped below 200 μS/cm) with Type 1 or USP “Water for injection” endotoxin-free water.
# 6. The lipid concentration in a purified extruded liposome preparation was determined using HPLC with UV detection, by measuring the concentration of cholesterol and correcting for the known phospholipid/cholesterol molar ratio. Alternatively, a spectrophotometric blue phosphomolybdate method was used to directly quantify the phospholipid content.
# 7. The drug was dissolved in Type 1 or endotoxin-free pure water in the form of a hydrochloric acid salt (e.g., AKG-3 and AKG-5 were used as monohydrochloride, AKG-28 and AKG-29 were used as dihydrochloride) at the concentration of 5-20 mg/ml of the drug. To the drug prepared in free base form (e.g., AKG-16, AKG-38), an equivalent amount of HCl was added. If necessary, pH of the solution was brought between pH 2.5-5.5, using 1 N NaOH, HCL, or tris(hydroxymethyl)aminomethane (Tris)-base solution, and the solution was filtered through a 0.2-micron PES filter under positive pressure. When necessary, the drug concentration in the stock solution so made was verified by HPLC with UV detection at 305 nm.
# 8. Purified liposomes of step 5 and the drug stock solution were combined in the presence of an osmotic agent (typically dextrose) and water in the amounts necessary to provide a desired drug-to-phospholipid (DL) ratio, the drug concentration in the range 1.5-3.3 mg/ml, at the osmolality equal to the measured osmolality of the trapping agent solution of step 2. Optionally, a buffer at a desired pH (typically pH 4 to pH 7) was added. In some instances, the amount of added osmotic agent (e.g., dextrose at about 45 g/L) provided osmolality less that the measured osmolality of the trapping agent solution, and the loading was effected at 6-8 mg/ml of the drug.
# 9. The drug-liposome mixture was incubated with constant agitation at 65-68° C. for about 15-20 min and quickly chilled on ice. After 5-10 min, the mixture was allowed to reach ambient temperature an adjusted to 0.1M NaCl by adding a calculated amount of 3 M NaCl stock solution.
# 10. […] The liposome fractions were collected near the column void volume. […]
# [10] = system: M. tuberculosis Erdman or H37Rv vs VERO or HepG2 cell lines; assay: Selectivity Index (IC50 mammalian cells / MIC bacteria); design: species or system Mycobacterium tuberculosis; details: for Selectivity Index (SI) Erd/VERO: IC50 VERO / MIC Erdman; for Selectivity Index (SI) Erd/HepG2: IC50 HepG2 / MIC Erdman; for Selectivity Index (SI) H37Rv/HepG2: IC50 HepG2 / MIC H37Rv; for Selectivity Index (SI) H37Rv/VERO: IC50 VERO / MIC H37Rv
# [11] = system: M.tb Erdman; assay: Broth microdilution MIC with Alamar blue endpoint (MABA), M.tb Erdman; assay type: cell-based, Mycobacterium tuberculosis; details: for MIC: Mycobacterium tuberculosis, ERDMAN, broth microdilution, MABA/OD600
# [12] = assay type: physicochemical
# Procedure: To the resulting cake or syrup, water was added typically to the final 10 mg/ml, and complete dissolution was observed. […] Aqueous solubility of the compounds of the present disclosure is illustrated by the following observations of obtaining visually clear solutions: […]
# [13] = system: methicillin resistant Staphylococcus aureus (MRSA) ATCC BAA-1556; details: cited from earlier work
# [14] = read-out: MIC against the three MRSA strains
# [15] = read-out: MRSA MIC, strain ATCC BAA-1556
# [16] = 1 N TEA-SOS, DL0 750-1500 g/mol PhL
# [17] = broth microdilution, MABA/OD600, read-out: Mycobacterium tuberculosis MIC, H37Rv
smiles,measurement,setting,value
CN(C)CCCn1nnc(-c2ccc(-c3ccc(N4C[C@H](CN)OC4=O)cc3F)cn2)n1.Cl (stereo in doubt) [AKG-30],MIC,[1],> 50 µg/mL
same,MIC,[2],> 50 µg/mL
same,IC50,[3],18.9 µg/mL
same,MIC,[4]; read-out: MIC (H37Rv),0.125 µg/mL
same,SI-MPS MPS/H37,[5],2.02
same,IC50,[6],0.252 µg/mL
same,IC50,[7],110 µg/mL
same,MIC,[8]; [14],> 50 µg/mL
same,MIC,[8]; [15],> 50 µg/mL
CN(C)CCCC(=O)OC[C@H]1CN(c2ccc(-c3ccc(-c4nnn(C)n4)nc3)c(F)c2)C(=O)O1 [AKG-5],Maximum encapsulated drug payload,"[9]; 0.5 M AS, 0.5 mol % PEG",627 g/mol PhL
same,Drug loading efficiency,"[9]; 0.5 mol % PEG-DSG, 1N TEA-SOS, DL0 500 g/mol PhL (Example 8, no added buffer)",101.3
same,Drug loading efficiency,"[9]; 0.5 mol % PEG-DSG, […] AS, DL0 250 g/mol PhL",98.5
same,Drug loading efficiency,"[9]; 0.5 mol % PEG-DSG, […] AS, DL0 500 g/mol PhL",97.7
same,loading efficiency at or near the maximum drug load,[9]; [16],≥ 96.0%
same,maximum drug load,[9]; [16],982-1197 g/mol PhL
same,Drug loading efficiency,"[9]; 5 mol % PEG-DSG, 1N TEA-SOS, DL0 500 g/mol PhL",99.3
same,Selectivity Index (SI) Erd/VERO,[10],32.5
CCN(CC)CCCNC[C@H]1CN(c2ccc(-c3ccc(-c4nnn(C)n4)nc3)c(F)c2)C(=O)O1 [AKG-8],MIC,[11],> 8 µg/mL
same,MIC,[4]; [17],> 8 µg/mL
CCN(CC)CCNC[C@H]1CN(c2ccc(-c3ccc(-c4nnn(C)n4)nc3)c(F)c2)C(=O)O1 [AKG-9],MIC,[11],> 8 µg/mL
same,IC50,[3],28.1 µg/mL
same,MIC,[4]; [17],> 8 µg/mL
same,IC50,[7],139 µg/mL
same,Selectivity Index (SI) Erd/HepG2,[10],<3.5
same,Selectivity Index (SI) H37Rv/HepG2,[10],3.5
same,Selectivity Index (SI) Erd/VERO,[10],<17.4
same,Selectivity Index (SI) H37Rv/VERO,[10],<17.4
CN(C)CCNc1ccc(-c2ccc(N3C[C@H](CO)OC3=O)cc2F)cn1 [AKG-12],MIC,[11],4 µg/mL
same,IC50,[3],67.6 µg/mL
same,MIC,[4]; [17],4 µg/mL
same,IC50,[7],89.1 µg/mL
same,Selectivity Index (SI) Erd/HepG2,[10],16.9
same,Selectivity Index (SI) H37Rv/HepG2,[10],16.9
same,Selectivity Index (SI) Erd/VERO,[10],22.3
same,Selectivity Index (SI) H37Rv/VERO,[10],22.3
CN(C)CCn1nnc(-c2ccc(-c3ccc(N4C[C@H](CO)OC4=O)cc3F)cn2)n1 [AKG-16],Maximum encapsulated drug payload,"[9]; 0.5 M AS, 0.5 mol % PEG",668-675 g/mol PhL
same,Maximum encapsulated drug payload,"[9]; 0.5 M AS, 5 mol % PEG",614-619 g/mol PhL
same,maximum drug load,[9]; [16],938-951 g/mol PhL
same,"Concentration % (w/w) of free base, visually clear solution",[12],30.0 % (w/w)
Cl.Cn1nnc(-c2ccc(-c3ccc(N4C[C@H](CNC(=O)CCN)OC4=O)cc3F)cn2)n1 [AKG-17],MIC,[11],2 µg/mL
same,IC50,[3],37.3 µg/mL
same,MIC,[4]; [17],2 µg/mL
same,Selectivity Index (SI) Erd/HepG2,[10],18.7
same,Selectivity Index (SI) H37Rv/HepG2,[10],18.7
same,Selectivity Index (SI) Erd/VERO,[10],>125
same,Selectivity Index (SI) H37Rv/VERO,[10],>125
Cl.Cn1nnc(-c2ccc(-c3ccc(N4C[C@H](CNC(=O)CCCN)OC4=O)cc3F)cn2)n1 [AKG-18],MIC,[11],2 µg/mL
same,IC50,[3],9.5 µg/mL
same,MIC,[4]; [17],2 µg/mL
same,IC50,[7],> 250 µg/mL
same,Selectivity Index (SI) Erd/HepG2,[10],4.8
same,Selectivity Index (SI) H37Rv/HepG2,[10],4.8
same,Selectivity Index (SI) Erd/VERO,[10],>125
same,Selectivity Index (SI) H37Rv/VERO,[10],>125
Cl.Cn1nnc(-c2ccc(-c3ccc(N4C[C@H](CNCCN)OC4=O)cc3F)cn2)n1 [AKG-19],MIC,[11],> 8 µg/mL
same,IC50,[3],42.2 µg/mL
same,MIC,[4]; [17],> 8 µg/mL
same,IC50,[7],> 250 µg/mL
same,Selectivity Index (SI) Erd/HepG2,[10],5.3
same,Selectivity Index (SI) H37Rv/HepG2,[10],5.3
same,Selectivity Index (SI) Erd/VERO,[10],>31.3
same,Selectivity Index (SI) H37Rv/VERO,[10],>31.3
Cl.NCCn1nnnc1-c1ccc(-c2ccc(N3C[C@H](CO)OC3=O)cc2F)cn1 [AKG-22],SI-MPS MPS/H37,[5],2.37
CN(C)CCn1nnc(-c2ccc(-c3ccc(N4C[C@H](CN)OC4=O)cc3F)cn2)n1 [AKG-28],"Concentration % (w/w) of free base, visually clear solution",[12],7.3 % (w/w)
Cl.Cl.NCCn1nnc(-c2ccc(-c3ccc(N4C[C@H](CN)OC4=O)cc3F)cn2)n1 [AKG-29],MIC,[11],0.25 µg/mL
same,MIC,[1],> 50 µg/mL
same,MIC,[2],50 µg/mL
same,IC50,[3],74.4 µg/mL
same,SI-MPS MPS/H37,[5],32.80
same,IC50,[7],110 µg/mL
same,MIC,[8]; [14],> 50 µg/mL
same,MIC,[8]; [15],50 µg/mL
CCN(CC)CCCn1nnc(-c2ccc(-c3ccc(N4C[C@H](CN)OC4=O)cc3F)cn2)n1.Cl [AKG-31],MIC,[11],0.5 µg/mL
same,IC50,[3],13.2 µg/mL
same,MIC,[4]; [17],0.5 µg/mL
same,IC50,[7],112 µg/mL
same,Selectivity Index (SI) H37Rv/HepG2,[10],26.4
same,Selectivity Index (SI) H37Rv/VERO,[10],223.0
CC(=O)NC[C@H]1CN(c2ccc(-c3ccc(-c4nnn(CCN(C)C)n4)nc3)c(F)c2)C(=O)O1 [AKG-38],IC50,[3],97 µg/mL
same,maximum drug load,"[9]; 0.5 M AS, HSPC/Chol 3:2, 0.5 mol % PEG-DSG (Example 14)",818-842 g/mol PhL
same,maximum drug load,"[9]; 1 N TEA-SOS, HSPC/Chol 3:2, 0.5 mol % PEG-DSG (Example 14)",989 g/mol PhL
same,drug load,"[9]; 30 mol % cholesterol, 5 mol % PEG-DSG, 1 N TEA-SOS",462.4 g/mol PhL
same,"Concentration % (w/w) of free base, visually clear solution",[12],7.1 % (w/w)
same,IC50,[6],0.041 µg/mL
same,IC50,[7],≥ 395 µg/mL
CCN(CC)CCn1nnc(-c2ccc(-c3ccc(N4C[C@H](CNC(C)=O)OC4=O)cc3F)cn2)n1 [AKG-39],"MIC, M. tuberculosis (Example 2)",[11]; strain not given,0.5 µg/mL
same,SI-MPS MPS/H37,[5],0.12
CCN(CC)CCCn1nnc(-c2ccc(-c3ccc(N4C[C@H](CNC(C)=O)OC4=O)cc3F)cn2)n1 [AKG-40],SI-MPS MPS/H37,[5],0.13
"Cn1nnc(-c2ccc(-c3ccc(N4C[C@H](CO)OC4=O)cc3F)cn2)n1 [Tedizolid, reference compound]",SI-MPS MPS/H37,[5],0.57
same,"MIC described in U.S. Pat. No. 7,816,379",[13],0.5 µg/mL
